Experimental findings from patent US8101621B2, “Aminopyridine derivatives having aurora a selective inhibitory action” (MSD K.K., priority 2006, dated 2012) are described below.

Experiment [1] has as its system Human cervical cancer cells (HeLa S3). Briefly: Effect by combined use with paclitaxel in cells, WST-8 method. Format: cell-based. Particulars: three days, DMSO = 0%. How it is done:
Fetal calf serum (FCS) was purchased from Moregate Biotech, DMEM medium from Invitrogen Corp., paclitaxel (tradename: Taxol) from Sigma-Aldrich, Inc., and WST-8 from Kishida Chemical Co., Ltd.
(§1) Human cervical cancer cells (HeLa S3) were obtained from the American Type Culture Collection (ATCC).
Cells were suspended in a DMEM medium containing 10% FCS, and the cell suspension was dispensed to two 96-well plastic plates at a rate of 750 cells/100 microliters per well. The plates were incubated overnight in 5% CO2-95% air at 37° C. A drug was subjected to graded dilution in dimethylsulfoxide and further diluted with […] a DMEM medium containing 10% FCS and also containing 2 nM paclitaxel. Then, the dilutions were each dispensed to one of the plates on which cells had been disseminated, at a rate of 100 microliters per well. The final concentration of paclitaxel at this stage was 1 nM. Also, the concentrations in the case of sole administration of the compound according to the invention were 0.03, 0.1, 0.3, 1 and 3 μM. The plates were incubated for further three days in 5% CO2-95% air at 37° C. Cell growth after incubation was measured by the WST-8 method (H. Tominaga, et al., Anal. Commun., 36, 47-50 (1999)). Here, the WST-8 method refers to a method in which 20 microliters of a WST-8 reagent solution is added to each well, incubation is conducted at 37° C. for 45 minutes, the plate is stirred, and the amount of formazan produced is measured by a colorimetric method to determine the inhibitory rate of the drug. The growth inhibitory effects of paclitaxel and of the compound according to the invention were determined, with the value obtained in sole treatment of DMSO being defined as 0%.

In experiment [2] the target is T1, Aurora B (Homo sapiens, UniProt Q96GD4).
T1 construct: histidine tag (N); made in house; host or cells: Escherichia coli BL21-CodonPlus (DE3)-RIL
T1 sequence (Q96GD4 whole entry): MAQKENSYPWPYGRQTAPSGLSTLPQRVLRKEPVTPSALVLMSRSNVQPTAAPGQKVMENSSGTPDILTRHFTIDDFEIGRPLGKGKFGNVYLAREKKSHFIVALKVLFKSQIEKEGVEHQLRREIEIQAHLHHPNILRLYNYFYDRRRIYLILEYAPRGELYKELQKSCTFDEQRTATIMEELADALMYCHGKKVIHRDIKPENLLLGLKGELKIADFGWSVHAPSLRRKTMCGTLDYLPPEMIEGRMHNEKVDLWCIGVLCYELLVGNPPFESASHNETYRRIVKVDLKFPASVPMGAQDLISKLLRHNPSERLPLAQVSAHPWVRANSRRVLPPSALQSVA
Briefly: Aurora B inhibitory action (Kemptide substrate, [γ-33P]ATP, 100 μM ATP). Particulars: 30° C., 20 minutes. The class given is biochemical. The source says:
cDNA of Aurora B having histidine tag fused at the amino terminal was integrated into an expression vector, which was then highly expressed in Escherichia coli BL21-CodonPlus (DE3)-RIL cells. The Escherichia coli cells were recovered and solubilized, and then the histidine-tagged Aurora A protein was adsorbed onto a nickel chelate column and eluted from the column with imidazole. The active fraction was desalted with a desalting column to give a pure enzyme.
For measurement of the activity of Aurora B, the substrate used was Kemptide (Leu-Arg-Arg-Ala-Ser-Leu-Gly) (SEQ.ID.NO.: 1), a synthetic peptide purchased from Sigma-Aldrich, Inc. [Certificate of analysis (Upstate, Inc.)].
Reaction was conducted by a partial modification of the method of activity measurement for Aurora A. The amount of the reaction liquid was 21.1 μL, and the composition of the reaction buffer (R2 buffer) was 50 mM Tris-hydrochloride buffer (pH 7.4)/15 mM magnesium acetate/0.2 mM ethylenediamine-N,N,N′,N′-tetraacetate (EDTA). To this, purified Aurora B, 100 μM of a substrate peptide, 100 μM of unlabeled adenosine triphosphate (ATP) and 1 μCi of [γ-^33P] labeled ATP (2,500 Ci/mmole or more) were added, and the mixture was reacted at 30° C. for 20 minutes. Then, 10 μL of 350 mM phosphate buffer was added to the reaction system to stop the reaction. The substrate peptide was adsorbed on a P81 paper filter 96-well plate and then washed with 130 mM phosphate buffer for several times. The radiation activity of the peptide was measured with a liquid scintillation counter. The [γ-^33P] labeled ATP was purchased from Amersham Biosciences Co., Ltd.
(§2) The compound to be tested was added to the reaction system such that a dilution series of the compound in dimethylsulfoxide was first prepared, and 1.1 μL of this solution was added. A control was provided by adding 1.1 μL of DMSO to the reaction system.

The target of experiment [3] is T2, Aurora A (Homo sapiens, UniProt O14965).
T2 construct: histidine tag (N); made in house; host or cells: Escherichia coli BL21-CodonPlus (DE3)-RIL
T2 sequence (O14965 1-403): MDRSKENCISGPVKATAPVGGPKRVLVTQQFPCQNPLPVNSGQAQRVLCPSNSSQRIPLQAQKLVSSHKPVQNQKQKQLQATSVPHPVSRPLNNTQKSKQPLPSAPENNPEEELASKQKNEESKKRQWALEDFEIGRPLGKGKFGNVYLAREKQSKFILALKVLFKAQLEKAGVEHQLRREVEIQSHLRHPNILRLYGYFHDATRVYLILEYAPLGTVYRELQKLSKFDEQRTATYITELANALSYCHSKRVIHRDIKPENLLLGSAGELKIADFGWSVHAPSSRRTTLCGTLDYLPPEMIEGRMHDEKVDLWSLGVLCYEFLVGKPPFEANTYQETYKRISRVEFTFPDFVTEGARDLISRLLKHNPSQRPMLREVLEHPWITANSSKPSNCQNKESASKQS
Put plainly: Aurora A inhibitory action (Kemptide substrate, [γ-33P]ATP, 20 μM ATP). Format: biochemical. Conditions: 30° C., 20 minutes.
From the text: cDNA of Aurora A having histidine tag fused at the amino terminal was integrated into an expression vector, which was then highly expressed in Escherichia coli BL21-CodonPlus (DE3)-RIL cells. The Escherichia coli cells were recovered and solubilized, and then the histidine-tagged Aurora A protein was adsorbed onto a nickel chelate column and eluted from the column with imidazole. The active fraction was desalted with a desalting column to give a pure enzyme.
For measurement of the activity of Aurora A, the substrate used was Kemptide (Leu-Arg-Arg-Ala-Ser-Leu-Gly) (SEQ.ID.NO.: 1), a synthetic peptide purchased from Sigma-Aldrich, Inc. [Certificate of analysis (Upstate, Inc.)].
Reaction was conducted by a partial modification of a method by Upstate, Inc. [Kinase Profiler™ Assay Protocols]. The amount of the reaction liquid was 21.1 μL, and the composition of the reaction buffer (R2 buffer) was 50 mM Tris-hydrochloride buffer (pH 7.4)/15 mM magnesium acetate/0.2 mM ethylenediamine-N,N,N′,N′-tetraacetate (EDTA). To this, purified Aurora A, 100 μM of a substrate peptide, 20 μM of unlabeled adenosine triphosphate (ATP) and 0.5 μCi of [γ-^33P] labeled ATP (2,500 Ci/mmole or more) were added, and the mixture was reacted at 30° C. for 20 minutes. Then, 10 μL of 350 mM phosphate buffer was added to the reaction system to stop the reaction. The substrate peptide was adsorbed on a P81 paper filter 96-well plate and then washed with 130 mM phosphate buffer for several times. The radiation activity of the peptide was measured with a liquid scintillation counter. The [γ-^33P] labeled ATP was purchased from Amersham Biosciences Co., Ltd.
as §2

For experiment [4], the system named is Human cervical cancer cells (HeLa S3). Put plainly: Cell growth inhibitory effect, WST-8 method. Format: cell-based. Conditions: 72 h, HeLa S3, three days incubation. On the procedure: Fetal calf serum (FCS) was purchased from Moregate Biotech, and DMEM medium was purchased from Invitrogen Corp. WST-8 was purchased from Kishida Chemical Co., Ltd.
as §1
Cells were suspended in a DMEM medium containing 10% FCS, and the cell suspension was dispensed to a 96-well plastic plate at a rate of 750 cells/100 microliters per well. The plate was incubated overnight in 5% CO2-95% air at 37° C. A drug was subjected to graded dilution in dimethylsulfoxide and further diluted with a DMEM medium containing 10% FCS. Then, the dilution was dispensed to the plate on which cells had been disseminated, at a rate of 100 microliters per well. The plate was incubated for further three days in 5% CO2-95% air at 37° C. Cell growth after incubation was measured by the WST-8 method (H. Tominaga, et al., Anal. Commun., 36, 47-50 (1999)). Here, the WST-8 method refers to a method in which 20 microliters of a WST-8 reagent solution is added to each well, incubation is conducted at 37° C. for 45 minutes, the plate is stirred, and the amount of formazan produced is measured by a calorimetric method to determine the inhibitory rate of the drug. The concentration for 50% growth inhibition (EC50, μM) of the compound was determined.
A general note: Formazan colour is commonly taken as a measure of viable cells.

Usually pIC50 stands for the IC50 on a negative log10 scale, so that one unit is a factor of ten.

pIC50: −log10 of the molar value.

`CN(C)C(=O)c1cc(CN2C[C@@H]3C[C@H]2CN3C(=O)c2cccc(Cl)c2F)nc(Nc2nccs2)c1` [Example 21, 2-(((1S,4S)-5-(3-chloro-2-fluorobenzoyl)-2,5-diazabicyclo[2.2.1]hept-2-yl)methyl)-N,N-dimethyl-6-(1,3-thiazol-2-ylamino)isonicotinamide]: in experiment [1] (HeLa S3, compound 0.1 μM + paclitaxel 1 nM), the “Cell growth inhibitory effect by combined administration of paclitaxel and the compound of Example (%)” value worked out at 81.3%. In addition, the inhibition at 0.1 µM in experiment [1] (Homo sapiens, HeLa S3, 72 h, HeLa S3, compound 0.1 μM alone, read-out: Cell growth inhibitory effect by sole administration of the compound of Example (%)) was 14.9%. For the same compound, the negative-log IC50 (pIC50) in experiment [2] is 6.59; in experiment [3], 8.89; in experiment [4], 6.17.
